Laboratory results reported in ChEMBL document CHEMBL1201862, “PubChem BioAssay data set” (2004).
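Values below derive from 48-hour exposures of cells grown in 96-well plates, with endpoints linearly interpolated between the two concentrations bracketing the appropriate inhibition level. Here, GI50 denotes the concentration required for 50% inhibition of growth.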 Active and inactive are the calls of the source. No stated cut-off is given here; in the data, active = GI50 up to about 1.1 µM and inactive = higher.

What was measured:
Test in all cases: NCI tumour cell line growth inhibition, 48 h
786-0 = system: 786-0
A549 = system: A549
CAKI-1 = system: CAKI-1
CCRF-CEM = system: CCRF-CEM
HCC 2998 = system: HCC 2998
HOP-92 = system: HOP-92
IGROV-1 = system: IGROV-1
M14 = system: M14
NCI-H23 = system: NCI-H23
OVCAR-3 = system: OVCAR-3
OVCAR-5 = system: OVCAR-5
SF-268 = system: SF-268
SNB-19 = system: SNB-19
TK-10 = system: TK-10
U-251 = system: U-251
UACC-257 = system: UACC-257
UACC-62 = system: UACC-62
DU-145 = system: DU-145
MDA-MB-435 = system: MDA-MB-435

Measured: GI50

CN(C)CC1CCC(=C2CCCC2)C1=O (stereo not given)
inactive: 786-0 7.52 µM | A549 20.5 µM | CAKI-1 > 100 µM | CCRF-CEM 3.03 µM | HCC 2998 18.2 µM | HOP-92 5 µM | IGROV-1 17.6 µM | M14 8.3 µM | NCI-H23 20 µM | OVCAR-3 13.5 µM | OVCAR-5 17 µM | SF-268 12.4 µM | SNB-19 > 63.7 µM | TK-10 11.5 µM | U-251 > 10 µM | UACC-257 17.4 µM | UACC-62 17.3 µM

COc1ccc2c(c1)[n+]([O-])c(C(=O)CC(=O)C(=O)Nc1cccc(Cl)c1C)c(C)[n+]2[O-]
inactive: 786-0 > 100 µM | A549 > 100 µM | CAKI-1 > 100 µM | CCRF-CEM 21.7 µM | HCC 2998 > 100 µM | HOP-92 > 100 µM | IGROV-1 > 100 µM | M14 > 100 µM | NCI-H23 > 100 µM | OVCAR-3 27.3 µM | OVCAR-5 > 100 µM | SF-268 > 100 µM | SNB-19 > 100 µM | TK-10 > 100 µM | U-251 > 100 µM | UACC-257 > 100 µM | UACC-62 > 100 µM

O=c1c2ccc(Br)cc2nc(-c2ccccc2)n1NC1OC(CO)C(O)C(O)C1O (stereo not given)
inactive: 786-0 > 100 µM | A549 > 100 µM | CAKI-1 > 100 µM | CCRF-CEM 72.9 µM | HCC 2998 > 100 µM | HOP-92 > 100 µM | IGROV-1 > 100 µM | M14 > 100 µM | NCI-H23 > 100 µM | OVCAR-3 > 100 µM | OVCAR-5 > 100 µM | SF-268 > 100 µM | SNB-19 > 100 µM | TK-10 > 100 µM | U-251 > 100 µM | UACC-257 > 100 µM | UACC-62 > 100 µM

CC1OC(=O)c2ccccc2NC1=O (stereo not given)
inactive: 786-0 > 100 µM | A549 > 100 µM | CAKI-1 > 100 µM | CCRF-CEM > 100 µM | DU-145 > 100 µM | HOP-92 > 100 µM | IGROV-1 > 100 µM | M14 > 100 µM | MDA-MB-435 > 100 µM | NCI-H23 > 100 µM | OVCAR-3 > 100 µM | OVCAR-5 > 100 µM | SF-268 > 100 µM | SNB-19 > 100 µM | TK-10 > 100 µM | U-251 > 100 µM | UACC-257 > 100 µM | UACC-62 > 100 µM

CCCCCC1C2C(=O)NC(=O)C1C(=O)NC2=O (stereo not given)
inactive: 786-0 > 100 µM | A549 > 100 µM | CAKI-1 > 100 µM | CCRF-CEM > 100 µM | HCC 2998 > 100 µM | HOP-92 > 100 µM | IGROV-1 > 100 µM | M14 > 100 µM | NCI-H23 > 100 µM | OVCAR-3 > 100 µM | OVCAR-5 > 100 µM | SF-268 > 100 µM | SNB-19 > 100 µM | TK-10 > 100 µM | UACC-257 > 100 µM | UACC-62 > 100 µM

CSc1nc2c(c(=O)n1C)N=C(c1ccccc1)[C@H](C(CC(=O)c1ccccc1)c1ccccc1)C(c1ccccc1)N2 (stereo not given in full)
inactive: 786-0 > 100 µM | A549 31.8 µM | CAKI-1 > 100 µM | CCRF-CEM 44.8 µM | DU-145 > 100 µM | HCC 2998 > 100 µM | HOP-92 > 100 µM | IGROV-1 > 100 µM | M14 > 100 µM | MDA-MB-435 > 100 µM | NCI-H23 > 100 µM | OVCAR-3 > 100 µM | OVCAR-5 > 100 µM | SNB-19 > 100 µM | U-251 > 100 µM | UACC-257 > 100 µM | UACC-62 > 100 µM

CCCCCCCC1(c2ccc(N)cc2)CCC(=O)NC1=O (stereo not given)
inactive: 786-0 28.4 µM | A549 31.6 µM | CAKI-1 27.4 µM | CCRF-CEM > 10 µM | HCC 2998 29.8 µM | HOP-92 15.2 µM | IGROV-1 32.3 µM | M14 32.4 µM | NCI-H23 38.3 µM | OVCAR-3 22.6 µM | OVCAR-5 31.6 µM | SF-268 34.4 µM | SNB-19 47.4 µM | TK-10 49.7 µM | UACC-257 32.9 µM | UACC-62 26.7 µM

COC(=N)c1csc(C2OC(CO)C(O)C2O)n1 (stereo not given)
inactive: 786-0 > 100 µM | A549 > 100 µM | CAKI-1 > 100 µM | CCRF-CEM 86.5 µM | HCC 2998 > 100 µM | HOP-92 > 100 µM | IGROV-1 > 100 µM | M14 > 100 µM | NCI-H23 > 100 µM | OVCAR-3 > 100 µM | OVCAR-5 > 100 µM | SF-268 > 100 µM | SNB-19 > 100 µM | TK-10 > 100 µM | U-251 > 100 µM | UACC-257 > 100 µM | UACC-62 > 100 µM
